Data taken from patent US20210032257A1, “(E)-1-(4-(DIMETHYLAMINO)BUT-2-ENOYL)PYRROLIDIN-3-YL 4-((3-ISOPROPYL-5-METHYLPYRAZOLO[1,5-A]PYRIMIDIN-7-YL)AMINO)PIPERIDINE-1-CARBOXYLATE FOR INHIBITING CDK7” (Eli Lilly and Company, priority 2017, published 2021).

Key:
Test in all cases: Biomarker study proliferation (CellTiter-Glo)
Assay type in all cases: cell-based
HCC1187 = test system: HCC1187
Description: (§1) Cancer cell lines are profiled to evaluate the anti-proliferative activity of a test compound in-vitro. Mutation, copy number and gene expression information of ARID1A, KMT2C, KMT2D and/or RB1 genes across cancer cell lines is obtained from COSMIC database (cancer.sanger.ac.uk) and cBioportal (http://www.cbioportal.org/). Cells are cultured in growth medium and plated into a 96-well plate in 100 μL/well growth medium at 5000 cells/well then incubated at 37° C., 5% CO2 overnight. Cells are cultured using supplier recommended media and conditions well known in the art, for example with RPMI 1640 with or without HEPES & L-Glutamine (Thermo SH30255.01) and 1 mM Sodium Pyruvate, and 10% FBS(Gibco cat #10082). The 1000× intermediate dilution plate is prepared by making a 10 mM working solution of a test sample in DMSO and performing 1:3 dilutions in DMSO for 10 points. The 10× dosing plate is prepared by adding 2 μL from the 1000× intermediate dilution plate to 198 μL of OPTIMEM®+10% FBS and mixing well. The cell plate is then treated by adding 11 μL from the 10× dosing plate into the 100 μL/well cell plate for a 1× final concentration. Staurosporine is used as a maximum growth inhibition control at a final concentration of 5 μM. The cell plate is incubated for 7 days at 37° C., 5% CO2. Seven days after treatment, Cell Titer-Glo® (Promega cat #G7571) assay buffer and substrate are removed from −20° C. and allowed to equilibrate to RT. Assay buffer is added to the substrate and swirled gently to mix. The CELL TITER-GLO® reagent (100 μL/well) is added to the cell plate and incubated at RT for 15 minutes. After 15 minutes, luminescence is read using a plate reader. Data is analyzed in Excel and graphed in GraphPad Prism. Statistical analysis and p value is calculated using Mann-Whitney nonparameteric t tests using GraphPad Prism.
(§2) Anti-proliferative effects of a test compound are categorized as insensitive (IC50≥1 μM), cytostatic (IC50<1 μM and % inhibition <70%) or cytotoxic (IC50<1 μM and % inhibition ≥70%).

A375 = test system: A375
Description: as §1, §2

HCC1806 = test system: HCC1806
Description: as §1, §2

MHCC97L = test system: MHCC97L
Description: as §1, §2

NCIH1299 = test system: NCIH1299
Description: as §1, §2

JURKAT = test system: JURKAT
Description: as §1, §2

IGROV1 = test system: IGROV1
Description: as §1, §2

MOLT4 = test system: MOLT4
Description: as §1, §2

NCIH727 = test system: NCIH727
Description: as §1, §2

KP4 = test system: KP4
Description: as §1, §2

PATU8988T = test system: PATU8988T
Description: as §1, §2

KARPAS299 = test system: KARPAS299
Description: as §1, §2

NIHOVCAR3 = test system: NIHOVCAR3
Description: as §1, §2

LI7 = test system: LI7
Description: as §1, §2

SNU449 = test system: SNU449
Description: as §1, §2

SW480 = test system: SW480
Description: as §1, §2

HCT8 = test system: HCT8
Description: as §1, §2

CORL88 = test system: CORL88
Description: as §1, §2

With Cc1cc(NC2CCN(C(=O)O[C@H]3CCN(C(=O)/C=C/CN(C)C)C3)CC2)n2ncc(C(C)C)c2n1 [Example 1, [(3S)-1-[(E)-4-(dimethylamino)but-2-enoyl]pyrrolidin-3-yl] 4-[(3-isopropyl-5-methyl-pyrazolo[1,5-a]pyrimidin-7-yl)amino]piperidine-1-carboxylate] the “Anti-proliferation effect % Inh.” value (HCC1187; HCC1187, BREAST, 7 days) was 73%, the “Anti-proliferation effect Outcome” value (HCC1187; HCC1187, BREAST, 7 days) was “Cytotoxic (cytotoxic (IC50<1 μM and % inhibition ≥70%))” and the IC50 (HCC1187; Homo sapiens, HCC1187, 168 h, read-out: Anti-proliferation effect IC50) was 27 nM. For the same compound, the “Anti-proliferation effect % Inh.” value (A375; A375, SKIN, 7 days) was 86%, the “Anti-proliferation effect Outcome” value (A375; A375, SKIN, 7 days) was “Cytotoxic (cytotoxic (IC50<1 μM and % inhibition ≥70%))” and the IC50 (A375; Homo sapiens, A-375, 168 h, read-out: Anti-proliferation effect IC50) was 55 nM. For the same compound, the “Anti-proliferation effect % Inh.” value (HCC1806; HCC1806, BREAST, 7 days) was 99%, the “Anti-proliferation effect Outcome” value (HCC1806; HCC1806, BREAST, 7 days) was “Cytotoxic (cytotoxic (IC50<1 μM and % inhibition ≥70%))” and the IC50 (HCC1806; Homo sapiens, HCC1806, 168 h, read-out: Anti-proliferation effect IC50) was 14 nM. For the same compound, the IC50 (MHCC97L; 168 h, read-out: Anti-proliferation effect IC50) was 526 nM, the “Anti-proliferation effect % Inh.” value (MHCC97L; LIVER, 7 days) was 45% and the “Anti-proliferation effect Outcome” value (MHCC97L; LIVER, 7 days) was “Cytostatic (cytostatic (IC50<1 μM and % inhibition <70%))”. The IC50 (NCIH1299; Homo sapiens, NCI-H1299, 168 h, read-out: Anti-proliferation effect IC50) was 195 nM, the “Anti-proliferation effect % Inh.” value (NCIH1299; NCIH1299, LUNG, 7 days) was 44% and the “Anti-proliferation effect Outcome” value (NCIH1299; NCIH1299, LUNG, 7 days) was “Cytostatic (cytostatic (IC50<1 μM and % inhibition <70%))”. For the same compound, the IC50 (JURKAT; Homo sapiens, Jurkat, 168 h, read-out: Anti-proliferation effect IC50) was 61 nM, the “Anti-proliferation effect % Inh.” value (JURKAT; JURKAT, BLOOD, 7 days) was 98% and the “Anti-proliferation effect Outcome” value (JURKAT; JURKAT, BLOOD, 7 days) was “Cytotoxic (cytotoxic (IC50<1 μM and % inhibition ≥70%))”. For the same compound, the IC50 (IGROV1; Homo sapiens, IGROV-1, 168 h, read-out: Anti-proliferation effect IC50) was 72 nM, the “Anti-proliferation effect % Inh.” value (IGROV1; IGROV1, OVARY, 7 days) was 70% and the “Anti-proliferation effect Outcome” value (IGROV1; IGROV1, OVARY, 7 days) was “Cytotoxic (cytotoxic (IC50<1 μM and % inhibition ≥70%))”. For the same compound, the IC50 (MOLT4; Homo sapiens, MOLT-4, 168 h, read-out: Anti-proliferation effect IC50) was 40 nM, the “Anti-proliferation effect % Inh.” value (MOLT4; MOLT4, BLOOD, 7 days) was 99% and the “Anti-proliferation effect Outcome” value (MOLT4; MOLT4, BLOOD, 7 days) was “Cytotoxic (cytotoxic (IC50<1 μM and % inhibition ≥70%))”. For the same compound, the IC50 (NCIH727; Homo sapiens, NCI-H727, 168 h, read-out: Anti-proliferation effect IC50) was 117 nM, the “Anti-proliferation effect % Inh.” value (NCIH727; NCIH727, LUNG, 7 days) was 56% and the “Anti-proliferation effect Outcome” value (NCIH727; NCIH727, LUNG, 7 days) was “Cytostatic (cytostatic (IC50<1 μM and % inhibition <70%))”. The IC50 (KP4; Homo sapiens, KP-4, 168 h, read-out: Anti-proliferation effect IC50) was 36 nM, the “Anti-proliferation effect % Inh.” value (KP4; KP4, PANCREAS, 7 days) was 65% and the “Anti-proliferation effect Outcome” value (KP4; KP4, PANCREAS, 7 days) was “Cytostatic (cytostatic (IC50<1 μM and % inhibition <70%))”. The IC50 (PATU8988T; Homo sapiens, PaTu 8988t, 168 h, read-out: Anti-proliferation effect IC50) was 201 nM, the “Anti-proliferation effect % Inh.” value (PATU8988T; PATU8988T, PANCREAS, 7 days) was 55% and the “Anti-proliferation effect Outcome” value (PATU8988T; PATU8988T, PANCREAS, 7 days) was “Cytostatic (cytostatic (IC50<1 μM and % inhibition <70%))”. The IC50 (KARPAS299; Homo sapiens, KARPAS-299, 168 h, read-out: Anti-proliferation effect IC50) was 69 nM, the “Anti-proliferation effect % Inh.” value (KARPAS299; KARPAS299, BLOOD, 7 days) was 78% and the “Anti-proliferation effect Outcome” value (KARPAS299; KARPAS299, BLOOD, 7 days) was “Cytotoxic (cytotoxic (IC50<1 μM and % inhibition ≥70%))”. For the same compound, the IC50 (NIHOVCAR3; Homo sapiens, OVCAR-3, 168 h, read-out: Anti-proliferation effect IC50) was 40 nM, the “Anti-proliferation effect % Inh.” value (NIHOVCAR3; NIHOVCAR3, OVARY, 7 days) was 96% and the “Anti-proliferation effect Outcome” value (NIHOVCAR3; NIHOVCAR3, OVARY, 7 days) was “Cytotoxic (cytotoxic (IC50<1 μM and % inhibition ≥70%))”. The “Anti-proliferation effect % Inh.” value (LI7; LI7, LIVER, 7 days) was 76%, the “Anti-proliferation effect Outcome” value (LI7; LI7, LIVER, 7 days) was “Cytotoxic (cytotoxic (IC50<1 μM and % inhibition ≥70%))” and the IC50 (LI7; Li-7, 168 h, read-out: Anti-proliferation effect IC50) was 132 nM. The IC50 (SNU449; Homo sapiens, SNU-449, 168 h, read-out: Anti-proliferation effect IC50) was 1520 nM, the “Anti-proliferation effect % Inh.” value (SNU449; SNU449, LIVER, 7 days) was 8% and the “Anti-proliferation effect Outcome” value (SNU449; SNU449, LIVER, 7 days) was “Insensitive (insensitive (IC50≥1 μM))”. The IC50 (SW480; Homo sapiens, SW480, 168 h, read-out: Anti-proliferation effect IC50) was 36 nM, the “Anti-proliferation effect % Inh.” value (SW480; SW480, INTESTINE, 7 days) was 90% and the “Anti-proliferation effect Outcome” value (SW480; SW480, INTESTINE, 7 days) was “Cytotoxic (cytotoxic (IC50<1 μM and % inhibition ≥70%))”. For the same compound, the “Anti-proliferation effect % Inh.” value (HCT8; HCT8, INTESTINE, 7 days) was 3%, the “Anti-proliferation effect Outcome” value (HCT8; HCT8, INTESTINE, 7 days) was “Cytostatic (cytostatic (IC50<1 μM and % inhibition <70%))” and the IC50 (HCT8; Homo sapiens, HCT-8, 168 h, read-out: Anti-proliferation effect IC50) was 981 nM. The “Anti-proliferation effect % Inh.” value (CORL88; CORL88, LUNG, 7 days) was 34%, the “Anti-proliferation effect Outcome” value (CORL88; CORL88, LUNG, 7 days) was “Insensitive (insensitive (IC50≥1 μM))” and the IC50 (CORL88; Homo sapiens, COR-L88, 168 h, read-out: Anti-proliferation effect IC50) was 4200 nM.
